The source of these data is patent US7705178B2, “Altering the crystal size distribution of N-(phosphonomethyl) iminodiacetic acid for improved filtration and product quality” (priority 2005, dated 2010).

The structures appear in SMILES notation. Several values for one entry are separate records, joined by “and”; a condition that tells them apart may be missing. Identical values can stand only once.

Data set [1] is classed as physicochemical. The note with it: room temperature (about 25 °C); mother liquor having a relatively high impurity content. The source says: It has been determined that glyphosine and NMG are more soluble in PMIDA mother liquor than is PMIDA. […] Those solubility limits are higher than the impurity concentration typically encountered in the prior art processes, thus it is believed that it is unlikely that impurity partitioning to the PMIDA wetcake results from solubility considerations such as impurities precipitating from solution onto the forming PMIDA crystal.

Data set [2] is described as follows: PMIDA solubility in acidified PM mother liquor. In kind it is physicochemical. The note with it: commercial batch mother liquor acidified with HCl. Here is the method:
For instance, mother liquor recovered at the end of a commercial scale batch was acidified with HCl in order to have an HCl content approximately equivalent to that found at the end of the PM reaction.
The data in Table 9B indicate that low levels of supersaturation will relieve over time. […] Solubility experiments indicate that the PMIDA solubility limit in acidified ML at 105° C. is between about 6.4 wt % and about 8.5 wt %. As noted in Tables 9A and 9B, equilibrium samples were also taken at various temperatures.

Data set [3] in a line: Equilibrium PMIDA concentration in PM reactor mother liquor (interrupted feed experiments). It counts as physicochemical. The note with it: for Equilibrium PMIDA in PM mother liquor (wt %): 60:40 DSIDA split. Here is the method: PMIDA solubility limits change throughout the PM reaction making supersaturation prediction problematic. Several laboratory experiments were performed at 105° C. using a 60:40 DSIDA split between the hydrolyzer and PM reactor in order to evaluate supersaturation limits during seeding and the initial stages of the crystallization event. The PM feed amounts were altered such that only a portion of the typical feed amounts were used in order to simulate various stages of the PM reaction step. […] It is believed, without being bound to any particular theory, that as NaCl is produced during the PM reaction, and HCl is consumed, PMIDA solubility is suppressed. Table B presents PMIDA solubility in the PM reactor mother liquor at varying amounts of formalin addition.
Several laboratory experiments using an interrupted feed were performed to evaluate supersaturation limits during seeding and the initial stages of the crystallization event. The PM feed amounts were altered such that only a portion of the typical feed amounts were used in order to simulate various stages of the PM reaction step. The first two experiments were designed such that only about 40% of the typical feed amounts were used in order to mimic reactor conditions that occurred during seed addition of early-seeding experiments. These experiments utilized a 60:40 DSIDA split between the hydrolyzer and PM reactor, 43% formalin, and DSIDA1. In the first experiment, a spike of about 0.3% of NMG on a final batch weight basis was added to the reactor following the hydrolysis step. Following the PM reaction, about 6.4% of seed on a final batch weight basis were added after the feeds were completed and a sample was removed. Post-seed samples were removed at 20, 40 and 100 minutes following the seed addition to determine the rate at which supersaturation would be relieved. All of the samples were taken at approximately 105° C. As the temperature decreased, additional samples were taken at 75° C. and 50° C. The first experiment data are in Table 9A below.
In the second experiment, no NMG was added after the hydrolysis step, and seed crystals were not added. Post-feed samples were removed at 0, 60 and 240 minutes following completion of the feed addition. The second experiment data are in Table 9B below.
A third experiment was designed such that only about 70% of the typical feed amounts were used in order to simulate PM reactor conditions when the PMIDA crystallization event typically takes place. The experiment utilized a 60:40 DSIDA split between the hydrolyzer and PM reactor, 37% formalin, and DSIDA1. No NMG was added after the hydrolysis step, and seed crystals were not added. Following the completion of the feeds, the reactor contents were allowed to mix at 105° C. for approximately 21 hours before sampling.
The fourth experiment was designed such that 100% of the typical feed amounts were added to the reactor in order to determine the equilibrium PMIDA solubility of the mother liquor after all of the feeds had been added. This experiment utilized a 60:40 DSIDA split between the hydrolyzer and PM reactor, 37% formalin, and DSIDA1. No NMG was added after the hydrolysis step, and seed crystals were not added. Following completion of the feeds, the reactor contents were allowed to mix at 105° C. for approximately 21 hours before sampling. […] Thus, it is believed, without being bound to any particular theory, that as the PM reaction progresses, supersaturation increase is a function of both PMIDA in situ generation and a decreasing solubility limit.
A fifth experiment was designed to determine the equilibrium mother liquor PMIDA concentration just prior to the crystallization event when a 75:25 DSIDA feed split is used. In addition to the feed split, the experiment used 37% formalin and DSIDA1. No NMG was added after the hydrolysis step, and seed crystals were not added. Mother liquor samples were removed during the course of the experiment. […]

On to `CN(CC(=O)O)CP(=O)(O)O` [NMG, N-methyl-N-(phosphonomethyl)glycine], for which, in data set [1], the “solubility limit in PMIDA mother liquor” value is reported as “about 3.6 wt %”.

Consider `O=C(O)CN(CC(=O)O)CP(=O)(O)O` [PMIDA, N-(phosphonomethyl)iminodiacetic acid], for which the “PMIDA Solubility in PM Mother Liquor, PM (wt %)” value in data set [2] (20 °C) came to 0.52 wt %; in data set [2] (50 °C) it was 1.26 wt %; in data set [2] (70 °C), 2.29 wt %; in data set [2] (90 °C) it was 4.15 wt %; in data set [2] (115 °C), 8.72 wt %. Moreover, the “Equilibrium PMIDA in PM mother liquor (wt %)” value is 12.6% wt % in data set [3] (40% of total formalin added to PM reactor, 105 °C); 8.6 wt % and 8.6% wt % in data set [3] (70% of total formalin added to PM reactor, 105 °C); 5.9 wt % and 5.9% wt % in data set [3] (100% of total formalin added to PM reactor, 105 °C). Also, in data set [3] (105 °C, average of interrupted runs 1 and 2), the “PM mother liquor PMIDA concentration, averaged equilibrium data” value was “about 16.4 wt %”. Besides, the “ML PMIDA (wt %), equilibrium” value in data set [3] (PM interrupted run 1 (about 40% of feeds, seeded, NMG spike), equilibrium at 50 °C) turned out to be 3.3 wt %; in data set [3] (PM interrupted run 1 (about 40% of feeds, seeded, NMG spike), equilibrium at 75 °C), 5.3 wt %; in data set [3] (PM interrupted run 1 (about 40% of feeds, seeded, NMG spike), equilibrium at 105 °C), 12.4 wt %; in data set [3] (PM interrupted run 2 (about 40% of feeds, no seed, no NMG), equilibrium at 50 °C) it was 4.0 wt %; in data set [3] (PM interrupted run 2 (about 40% of feeds, no seed, no NMG), equilibrium at 75 °C), 8.1 wt %; in data set [3] (PM interrupted run 2 (about 40% of feeds, no seed, no NMG), equilibrium at 105 °C), 13.8 wt %. Moreover, the “ML PMIDA (wt %), equilibrium” value in data set [3] (PM interrupted run 5, 75:25 DSIDA split, 84.0% of total formalin added, equilibrium at 105 °C, about 19 hours) worked out at 14.4 wt %.

`O=C(O)CN(CP(=O)(O)O)CP(=O)(O)O` [glyphosine, N,N-bis-(phosphonomethyl)glycine]: the “solubility limit in PMIDA mother liquor” value in data set [1] was “about 3.9 wt %”.
